Reference: patent US5919668A, “Non-reducing saccharide and its production and use” (Kabushiki Kaisha Hayashibara Seibutsu Kagaku Kenkyujo, priority 1994, dated 1999)
Entries after “also recorded” stand apart in the source; their conditions may differ.

What was measured:
[1] = Maillard reaction (coloration with glycine, absorbance at 480 nm); type: physicochemical; conditions: for Coloration degree at 480 nm: 10% saccharide, 1% glycine, 50 mM phosphate buffer pH7.0, 100° C., 90 minutes, 1 cm cuvette
Method: Solutions of 10% saccharide preparation PI, PII, PIII, PIV or PV prepared in Experiment 4 and 1% glycine in 50 mM phosphate buffer (pH7.0) were incubated at 100° C. for 90 minuets, cooled and determined in 1 cm cuvette for absorbance at 480 nm. As control, maltotriose, maltotetraose, maltopentaose, maltohexaose and maltoheptaose which were used as the starting materials were treated similarly as above and determined for absorbance at 480 nm.
10% High-purity trehalose preparation, purity of 99.5%, obtained by the method in Experiment 17 and 1% glycine in 50 mM phosphate buffer (pH7.0) was incubated at 100° C. for 90 minutes, cooled and measured in lcm cuvette for absorbance at 480 nm. As control, glucose and maltose were treated similarly as above and then measured for absorbance at 480 nm.

[2] = tested on: non-reducing saccharide-forming enzyme; type: biochemical, Rhizobium species M-11; conditions: for Composition: residual substrate: non-reducing saccharide-forming enzyme, 48 h, pH 7; for Composition: newly formed saccharide: 20% substrate, 2 units/g, 40° C., pH7.0, 48 hours
Method: 20% Aqueous solutions of glucose, maltose, maltotriose, maltotetraose, maltopentaose, maltohexaose or maltoheptaose as substrate were prepared, added with 2 units/g substrate solid of the purified enzyme obtained in Experiment 2, allowed to react at 40° C. and pH7.0 for 48 hours, deionized and analyzed for reaction products on high-performance liquid chromatography using "WAKO BEADS WB-T-330", a product of Wako Pure Chemical Industries, Ltd., Osaka, Japan. The high-performance liquid chromatography was conducted at ambient temperature, where water as eluent was flowed at a rate of 0.5 ml/min and "Model RI-8012", a differential reflactometer commercialized by Tosoh Corp., Tokyo, Japan, was used for analysis.

[3] = Properties of products (hygroscopicity, viscosity, stability, tonicity); type: physicochemical
[4] = target: T1, trehalose-releasing enzyme (Rhizobium sp. M-11, UniProt Q53238); type: biochemical, Rhizobium species M-11; conditions: trehalose-releasing enzyme, 48 h, pH 7
T1 construct: M-11, about 58-68 kDa
T1 sequence (Q53238 1-596): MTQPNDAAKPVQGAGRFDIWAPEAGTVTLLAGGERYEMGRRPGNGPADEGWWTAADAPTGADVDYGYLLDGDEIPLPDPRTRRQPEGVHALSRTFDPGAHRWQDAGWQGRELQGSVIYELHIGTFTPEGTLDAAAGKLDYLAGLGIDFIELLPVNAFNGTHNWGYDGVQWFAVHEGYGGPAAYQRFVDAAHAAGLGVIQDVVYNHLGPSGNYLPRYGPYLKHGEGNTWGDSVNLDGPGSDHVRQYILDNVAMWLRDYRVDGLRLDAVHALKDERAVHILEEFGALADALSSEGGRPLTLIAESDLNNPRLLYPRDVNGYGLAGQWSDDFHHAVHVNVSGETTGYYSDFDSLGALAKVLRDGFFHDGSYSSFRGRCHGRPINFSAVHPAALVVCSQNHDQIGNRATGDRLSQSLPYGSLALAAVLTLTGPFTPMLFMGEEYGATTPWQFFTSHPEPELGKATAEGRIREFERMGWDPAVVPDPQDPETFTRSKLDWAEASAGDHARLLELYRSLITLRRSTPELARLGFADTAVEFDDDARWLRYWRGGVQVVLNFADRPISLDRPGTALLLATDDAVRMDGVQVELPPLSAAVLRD
Method: Alpha-glycosyl trehaloses as substrates were prepared in accordance with the method described in Japanese Patent Application No. 349,216/93. More particularly, 20% aqueous solutions of maltotriose, maltotetraose, maltopentaose, maltohexaose or maltoheptaose as reducing partial starch hydrolysate were added with 2 units/g substrate solid of a purified non-reducing saccharide-forming enzyme obtained by the method in […], reacted at 40° C. and pH7.0 for 48 hours, heated for inactivation, filtered, deionized, concentrated in conventional manner and applied to ion exchange column chromatography on a strongly-acidic cation exchange "XT-1016" in sodium form. The ion exchange resin was packed in 3 jacketed-stainless steel columns, inner diameter of 2.0 cm, length of 1 m, and the columns were cascaded, loaded with 5 v/v % reaction saccharide liquid against the resin and injected with 55° C. water at SV0.13 for fractionation while keeping the temperature inside the columns at 55° C., thus obtaining high-purity preparations of non-reducing saccharides with glucose polymerization degrees of 3 or higher.
20% Aqueous solutions of these five types of non-reducing saccharides or alpha-glycosyl trehaloses were prepared, added with 2 units/g substrate solid of the purified trehalose-releasing enzyme obtained in Experiment 15, reacted at 40° C. and pH7.0 for 48 hours, deionized and subjected to high-performance liquid chromatography on "WAKO BEADS WB-T-330" for analysis of reaction products. As control, maltotriose, maltotetraose, maltopentaose, maltohexaose and maltoheptaose were subjected to the purified trehalose-releasing enzyme similarly as above and then analyzed on high-performance liquid chromatography.

mice = assay: Acute toxicity test, oral administration in mice; type: in vivo; conditions: oral, mice
Method: (§1) Acute toxicity tests were conducted on the non-reducing saccharide preparations PI, PII, PIII, PIV and PV prepared in Experiment 4, where they were orally administered to 7 week-old dd mice. […] Thus the LD50 of these saccharides was at least 50 g/kg or higher.
(§2) An acute toxicity test was conducted on a high-purity trehalose preparation obtained by the method in Experiment 17, purity of 99.5%, where it was orally administered in mice. […] Thus its LD50 would be briefly 50 g/kg or higher.

[5] = Acute toxicity test, oral administration in mice; type: in vivo; conditions: mouse, in vivo; oral, mice
Method: as §1, §2

pig kidney trehalase = assay: Degradation by pig kidney trehalase; type: biochemical; conditions: trehalose, or trehalose formed from PI-PV; pH5.7, 37° C., 18 hours for the latter
Method: In order to purify trehalose from respective reaction products, they were decolored, deionized, concentrated and subjected to column fractionation on a strongly-acidic cation exchange of sodium form "XT-1016", followed by recovering high-purity fractions with trehalose contents of 97% or higher. The fractions were then concentrated to about 65% and allowed to standing at 25° C. for 2 days to crystallize out crystalline trehalose hydrate which was then separated and dried in vacuo to obtain a high-purity preparation with a trehalose content of 99% or higher. The yields against respective starting substrates on dry solid basis were as follows: from glycosyl trehalose, 9.5%; from maltosyl trehalose, 14.9%; from maltotriosyl trehalose, 16.0%; from maltotetraosyl trehalose, 18.5%; and from maltopentaosyl trehalose, 17.7%. […] As evident from the above results, the saccharides formed by subjecting alpha-glycosyl trehaloses to the trehalose-releasing enzyme were identified to be trehalose.

[6] = Reducing power by the Somogyi-Nelson method, represented in terms of DE; type: physicochemical
Method: The high-purity preparations of the newly formed saccharides were determined for reducing power by the Somogyi-Nelson method and represented in terms of DE.

[7] = Test for assimilation in vivo (blood sugar and insulin levels); conditions: 30 g oral, healthy men
Method: In accordance with the method reported by Atsuji et al., Rinsho Eiyo (Clinical Nutrition), Vol.41, No. 2, pp.200-208 (1972), 30 g of a high-purity trehalose preparation, purity of 99.5%, obtained by the method in Experiment 17 was prepared into 20 w/v % aqueous solution and orally administered to healthy men, age of 26, 27, 28, 29, 30 or 31 years, after which their bloods were periodically sampled and measured for blood sugar and insulin levels. Glucose was used as control.

Row | SMILES | Coloration degree at 480 nm [1] | Composition: residual substrate [2] | Composition: residual substrate [4] | Composition: newly formed saccharide [2] | further results
1 | OC[C@H]1OC(O)[C@H](O)[C@@H](O)[C@@H]1O (stereo partly drawn) [Glucose, glucose] | 1.671 | 100.0% | – | – | Formation of new saccharides from substrate (in words) [2]: No saccharides were newly formed
2 | OC[C@H]1O[C@H](O[C@H]2[C@H](O)[C@@H](O)C(O)O[C@@H]2CO)[C@H](O)[C@@H](O)[C@@H]1O (mixture of isomers) [Maltose, maltose] | 0.926 | 100.0% | – | – | Formation of new saccharides from substrate (in words) [2]: No saccharides were newly formed
3 | OC[C@H]1O[C@H](O[C@H]2O[C@H](CO)[C@@H](O)[C@H](O)[C@H]2O)[C@H](O)[C@@H](O)[C@@H]1O [Example A-5] | – | – | – | – | Hygroscopicity (in words) [3]: substantially free of hygroscopicity
4 | OC[C@H]1O[C@H](O[C@H]2[C@H](O)[C@@H](O)[C@@H](O[C@H]3[C@H](O)[C@@H](O)[C@@H](O[C@H]4[C@H](O)[C@@H](O)C(O)O[C@@H]4CO)O[C@@H]3CO)O[C@@H]2CO)[C@H](O)[C@@H](O)[C@@H]1O (stereo partly drawn) [Maltotetraose, maltotetraose, reference compound] | 0.475 | 14.4% | 100% | 85.6% | –
5 | OC[C@H]1O[C@H](O[C@H]2[C@H](O)[C@@H](O)[C@@H](O[C@H]3[C@H](O)[C@@H](O)C(O)O[C@@H]3CO)O[C@@H]2CO)[C@H](O)[C@@H](O)[C@@H]1O (stereo partly drawn) [Maltotriose, maltotriose, reference compound] | 0.623 | 65.0% | 100% | 35.0% | –
6 | OC[C@H]1O[C@H](O[C@H]2[C@H](O)[C@@H](O)[C@@H](O[C@H]3[C@H](O)[C@@H](O)[C@@H](O[C@H]4[C@H](O)[C@@H](O)[C@@H](O[C@H]5[C@H](O)[C@@H](O)[C@@H](O[C@H]6[C@H](O)[C@@H](O)C(O)O[C@@H]6CO)O[C@@H]5CO)O[C@@H]4CO)O[C@@H]3CO)O[C@@H]2CO)[C@H](O)[C@@H](O)[C@@H]1O (stereo partly drawn) [Maltohexaose, maltohexaose, reference compound] | 0.318 | 6.5% | 100% | 93.5% | –
7 | OC[C@H]1O[C@H](O[C@H]2[C@H](O)[C@@H](O)[C@@H](O[C@H]3[C@H](O)[C@@H](O)[C@@H](O[C@H]4[C@H](O)[C@@H](O)[C@@H](O[C@H]5[C@H](O)[C@@H](O)C(O)O[C@@H]5CO)O[C@@H]4CO)O[C@@H]3CO)O[C@@H]2CO)[C@H](O)[C@@H](O)[C@@H]1O (stereo partly drawn) [Maltopentaose, maltopentaose, reference compound] | 0.369 | 7.3% | 100% | 92.7% | –
8 | OC[C@H]1O[C@H](O[C@H]2[C@H](O)[C@@H](O)[C@@H](O[C@H]3[C@H](O)[C@@H](O)[C@@H](O[C@H]4[C@H](O)[C@@H](O)[C@@H](O[C@H]5[C@H](O)[C@@H](O)[C@@H](O[C@H]6[C@H](O)[C@@H](O)[C@@H](O[C@H]7[C@H](O)[C@@H](O)C(O)O[C@@H]7CO)O[C@@H]6CO)O[C@@H]5CO)O[C@@H]4CO)O[C@@H]3CO)O[C@@H]2CO)[C@H](O)[C@@H](O)[C@@H]1O (stereo partly drawn) [Maltoheptaose, maltoheptaose, reference compound] | 0.271 | 6.6% | 100% | 93.4% | –
9 | OC[C@H]1O[C@H](O[C@H]2O[C@H](CO)[C@@H](O)[C@H](O)[C@H]2O)[C@H](O)[C@@H](O)[C@@H]1O [Trehalose, alpha,alpha-trehalose] | 0.006 | – | – | – | Animal death at the possible highest dose (mice): caused no death even in the possible highest dose; LD50 [5]: ≥ 50000 mg/kg; Coloration relative to glucose and maltose ([1]; 480 nm, with glycine): 0.4-0.6%; Degradation by pig kidney trehalase (in words) (pig kidney trehalase): degraded by the trehalase derived from pig kidney; Reducing power (in words) [6]: exhibits no reducing power; Time of maximum blood sugar level after administration ([7]; 20 w/v % aqueous solution): 0.5 to 1 h; Time of maximum insulin level after administration ([7]; 20 w/v % aqueous solution): 0.5 to 1 h; Assimilation (in words) ([7]; glucose as control): trehalose behaved similarly as glucose did; also recorded: readily digested and absorbed and then metabolized and utilized as energy source
